# Source: patent publication US11203598B2, “Compounds for repressing cancer cell growth” (Institute For Cancer Research, priority 2018, dated 2021)
# Experiments:
# Format in all cases: cell-based, human
# [1] = tested on: SW480 cells; assay: CellTiter-Glo luminescent cell viability assay; settings: for cell viability: dose dependent
# Protocol: Cells were seeded in 96-well plates at a density of 5×10^3 cells per well. 20 μL of CellTiter-Glo® Reagent was added directly to the wells, following the manufacturer's protocol, and bioluminescence signal was determined using an IVIS imaging system.
# (§1) Cell lines at a concentration of 4×10^3 cells/well were seeded out on an opaque 96-well plate and treated with CB002 and Analog 11 in ranging doses starting from 200 μmol/L with DMSO controls. At 72 hours after treatment, cells were mixed with 30 μL Cell Titer-Glo reagent and after ten minutes of room temperature incubation were imaged using IVIS imaging system (Xenogen).
# To begin establishing the potential of CB002 as a candidate therapeutic agent, its therapeutic index was determined by treating cancer (DLD-1, SW480, and RXF393) and normal (WI38 and MRC5) cell lines with concentrations of CB002 ranging from 0-500 μM for a period of 72 hours and assessing cell viability by the CellTiter-Glo® luminescence assay (see, FIG. 2). CB002 has a significant therapeutic index among the cells tested.
# [2] = tested on: HCT116 cells; assay: Cell Titer-Glo cell viability assay; settings: 72 hours, dose dependent
# Protocol: as §1
# [3] = tested on: HCT116 p53-null cells; assay: Cell Titer-Glo cell viability assay; settings: 72 hours, dose dependent
# Protocol: as §1
# [4] = tested on: p53 reporter (PG13-luc) in SW480 cells; assay: luciferase-based p53-reporter activity assay
# Protocol: High-throughput screening was performed using a non-invasive bioluminescence imaging in human colorectal cancer cell lines that stably express a p53-regulated luciferase reporter. Cells were seeded in 96-well plates (Greiner Bio-One) at a density of 1×10^4 cells per well. p53 transcriptional activity was imaged using an IVIS imaging system for a period of 3-4 hours.
# Cell-based screening of p53 transcriptional activity for small molecule CB002 was accomplished using noninvasive bioluminescence imaging in human colorectal cancer cell lines SW480, DLD-1, DLD-1 p73^−/−, HCT116, and HCT116 p53^−/−. These cell lines stably express a p53 reporter, PG13-luc. Cells were seeded in opaque 96-well culture at a density of 5×10^4 cells/well. The cells were treated with CB002 at ranging doses with DMSO controls. Bioluminescence in cells was imaged for p53 transcriptional activity at 2 hours and 24 hours using IVIS imaging system (Xenogen).
# In order to identify small molecules that could restore the p53 signaling pathway, 50,000 small molecules from the Chembridge Library were screened using a firefly luciferase human p53 reporter assay system. SW480 colorectal cancer cells that stably express the human p53 reporter were treated with compounds at various concentrations from 0-100 μM for 2 and 24 hours. […] To further validate the effects of CB002, the screening was expanded by testing effects on p53-dependent reporter activity in DLD-1, wild-type HCT116, and p53-null colorectal cancer HCT116 cell lines. […] Referring to FIG. 1, representative images of luciferase-based p53-reporter activity assays are shown at 3 hours (Panel A). Quantification of the luciferase-based p53-reporter activity assays in three different cell lines incubated from 3-24 hours with CB002 are shown (Panels B-D). p53-reporter activity assays are shown at 2 hours for HCT116 p53-null cells (Panel E).
# [5] = tested on: p53 pathway proteins in SW480 cells; assay: Western blot of p53, p53 targets, apoptosis and autophagy markers; settings: for Noxa expression: 24 hour, 100 μM CB002, 25 NM Analog 4, 100 μM Analog 11; for mutant p53 protein level: varying doses, anti-p53 (DO-1)
# Protocol: (§2) After treatment, cells were harvested by trypsinization, washed with PBS, and lysed with RIPA buffer (Sigma-Aldrich) for 30 minutes to 1 hour at 4° C. Protein lysates were spun down and supernatant was collected. Protein quantification was performed using a Pierce™ BCA Protein Assay Kit (Thermo Fisher Scientific). 1×NuPAGE® LDS sample buffer (Thermo Fisher Scientific) and 2-Mercaptoethanol as the reducing agent (Sigma-Aldrich) were added to protein lysates, followed by boiling for 15 minutes at 95° C. Equal total protein amounts samples were loaded into NuPAGE™ Novex™ 4-12% Bis-Tris Protein Gels (1.5 mm, Thermo Fisher Scientific) and gel eletrophoresis was performed with NuPAGE™ MES SDS Running Buffer. Proteins were transferred onto an Immobilon-P membrane (PVDF, EMD Millipore) using a Bio-Rad system with a 10% Tris-Glycine and 10% methanol transfer buffer diluted in distilled and deionized water. After transfer, membranes were blocked with 10% milk in TBST solution and then incubated overnight with primary antibody, washed with TBST and incubated with secondary antibody for 1 hour. Incubations were performed in 5% milk in TBST solution. Signal was detected by using a chemiluminescent detection kit, followed by autoradiography. The following antibodies were used: p53 (DO-1, 1:1000, Santa Cruz), p73 (1:1000, Bethyl Laboratories), p21 and NOXA (1:250, EMD Millipore), DR5, FADD, cleaved caspase 3, cleaved caspase 8, cleaved PARP, and LC3B (1:1000, Cell Signaling), and β-actin (1:10000, Sigma).
# (§3) Proteins were isolated using NP40 Lysis Buffer (20 mmol/L Tris-HCl (pH 7.4), 150 mmol/L NaCl, 5 mmol/L EDTA, 50 mmol/L NaF, 1 mmol/L glycerophosphate, 5 mmol/L Na4P2O7, 0.5% NP40, and complete protease inhibitor cocktail (Roche)) and electrophoresed through 4-12% SDS-PAGE followed by semi-dry transfer to PVDF membranes. The PVDF membranes were incubated with different antibodies including p21 (OP64-100UG, EMD Millipore (world wide web at emdmillipore.com/US/en/product/Antip21WAF1-(Ab-1)-Mouse-mAb-(EA10), EMD_BIO-OP64)), PUMA (12450S, Cell Signaling Technology, world wide web at cellsignal.com/products/primary-antibodies/puma-d30c10-rabbit-mab/12450), DR5 (3696S, Cell Signaling Technology, world wide web at cellsignal.com/products/primary-antibodies/dr5-antibody/3696?N=4294956287&Ntt=3696s&fromPage=plp& requestid=541668), p53(sc-126, Santa Cruz, world wide web at scbt.com/scbt/fr/product/p53-antibody-do-1), and RAN (610341, BD Transduction Laboratories, world wide web at bdbiosciences.com/us/reagents/research/antibodies-buffers/cell-biologyreagents/cell-biology-antibodies/purified-mouse-anti-ran-20ran/p/610341) in blocking buffer at 4° C. overnight. Bound antibody will be detected using IRDye secondary antibodies (LI-COR Biosciences,) in Odyssey blocking buffer for 1 hour then imaged using the ODYSSEY infrared imaging system.
# [6] = tested on: p53 pathway proteins in DLD-1 cells; assay: Western blot of p53 targets and LC3B; settings: for DR5 protein level: 8 and 24 hours
# Protocol: as §2, §3
# [7] = 8 hours, 25 μmol/L and 50 μmol/L
# [8] = 24 hours, 12 μmol/L of CB002 and 25 μmol/L of Analog 11
compound,measurement,setting,value
"Cn1c(=O)c2[nH]c(Nc3ccccc3)nc2n(C)c1=O [CB002, 8-anilino-1,3-dimethyl-3,7-dihydro-1H-purine-2,6-dione]","combination index (CI), CB002 and CPT-11",[1]; 72 hours,synergism
same,cell viability,[1]; 72 hours,reduced cell viability
same,"combination index (CI), CB002 and 5-FU","[1]; 72 hours, CI<1 indicates synergism",< 1.0
same,"cell viability, combination with 5-FU","[1]; CB002 (22 μM and 66 μM) with 5-FU (60 μg/ml), 72 hours, versus single agents",significantly reduced cell viability
same,"cell viability, combination with CPT-11","[1]; CB002 (66 μM) and CPT-11 (a series of doses), 72 hours, versus single agents",significantly reduced cell viability
same,IC50,"[1]; Homo sapiens, SW480, 72 hours, GraphPad",96.5 µM
same,cell viability,[2],reduced cell viability
same,cell viability,[3],reduced cell viability
same,p53 luciferase reporter activity,"[4]; 0-100 μM, 2 and 24 hours",activating the luciferase reporter in a dose-dependent manner
same,Noxa protein expression,[5]; 50 μM and 96 μM,increased
same,expression of p21 and DR5,"[5]; 12, 25, and 50 μM, 16 hours",increase the expression
same,p53 protein expression level (mutant p53),"[5]; 12, 25, and 50 μM, 16 hours, versus DMSO",constant p53 protein expression levels
same,cleaved PARP expression,"[5]; 12, 25, and 50 μM, versus vehicle",observed to increase
same,LC3B expression (autophagy marker),[5]; 50 and 96 μM,induce the expression of LC3B
same,Noxa expression,[5],Induction of Noxa expression
same,mutant p53 protein level,[5]; 24 hours,decrease significantly
same,cleaved caspase 3 and cleaved PARP expression,"[5]; DR5 siRNA knockdown, 50 and 96 μM",continued to induce the expression
same,cleaved PARP expression,"[5]; FADD knockdown cells, 24 hours",able to induce the expression of cleaved PARP
same,LC3B expression,"[5]; NOXA knock-down cells, 50 and 96 μM",failed to induce LC3B expression
same,c-caspase 3 and cleaved PARP expression,"[5]; NOXA shRNA knockdown, 50 and 96 μM",did not induce the expression of apoptotic markers
same,PARP cleavage,"[5]; atg5 siRNA knockdown, 16 and 24 hours",complete loss of PARP cleavage
same,cleaved caspase 8 and cleaved PARP,"[5]; combination with 50 μM chloroquine, 24 hours",reduced compared to CB002 alone
same,"expression of p21, DR5 and PARP cleavage",[5]; p73 siRNA knockdown cells,"increase the expression of p53 target genes p21 and DR5, and associated PARP cleavage"
same,LC3B protein expression time course,"[6]; 160 μM, 0-48 hours",initial increase of LC3B
same,DR5 protein level,[6],slightly increased
same,PUMA protein level,[6]; [7],minor increase in PUMA
same,p21 protein level,[6]; [7],minor increase in p21
same,PUMA protein level,[6]; 24 hours,an increase in PUMA
same,p21 protein level,[6]; [8],moderate increase in p21
"Cn1c(=O)c2c(nc(Nc3ccccc3)n2C)n(C)c1=O [Analog 11, 8-anilino-1,3,7-trimethyl-3,7-dihydro-1Hpurine-2,6-dione]",cell viability,[1]; 72 hours,reduced cell viability
same,cell viability,[2],reduced cell viability
same,cell viability,[3],reduced cell viability
same,p53 responsive bioluminescence,[4]; 0 to 20 μmol/L,increased p53 responsive bioluminescence in a dose dependent manner
same,Noxa expression,[5],Induction of Noxa expression
same,mutant p53 protein level,[5]; 24 hours,decrease moderately
same,DR5 protein level,[6],no change of DR5
same,PUMA protein level,[6]; [7],an increase at the 25 μmol/L but not the 50 μmol/L
same,p21 protein level,[6]; [7],minor increase in p21
same,PUMA protein level,[6]; 24 hours,an increase in PUMA
same,p21 protein level,[6]; [8],moderate increase in p21
